{"source": "patent US20230204572A1", "about": "“Engineered Biosensors in an Encapsulated and Deployable System (EBEADS) for Environmental Chemical Detection” (priority 2021, published 2023)", "key": {"[1]": {"system": "HbpR", "assay": "Sensor induction in hydrogel microbeads (eBEADS, amplification circuit strain, AmilCP)", "assay_type": "cell-based, Pseudomonas azelaica", "procedure": "The encapsulated sensing strain's ability to detect low concentrations of 2-PP and produce a visible output signal were evaluated by time series of microscope images. Briefly, the positive control strain and 2-PP with amplification circuit strain were encapsulated in the PAA formulation as previously described above. The microbeads were placed on LB agar plates containing 0.2 mM IPTG, 100 μg/mL carbenicillin, and 50 μg/mL kanamycin supplemented with 0, 1 or 10 μM 2-phenylphenol and incubated at 30° C. Images of the sensing strain microbeads were taken at time points 0, 6, 12, 24, and 48 hours with a Nikon SMZ25 stereoscope."}, "[2]": {"system": "HbpR", "assay": "β-galactosidase (lacZ) reporter activity of sensing strain pBL_IMP_11 without amplification circuit in liquid culture", "assay_type": "cell-based, Pseudomonas azelaica", "procedure": "Cultures were grown overnight to saturation and then diluted to an OD600 of 0.2. Cultures were incubated at 30° C. with shaking until an OD600 of 0.7-1 before inducing cultures with 2-phenylphenol dissolved in 100% ethanol. Cultures were incubate for 3 hours or 1 mL samples were taken every hour. For experiments where 2-PP was removed after incubating for 3 hours, cultures were divided in two tubes and centrifuged. One half of the cultures were washed with 1×PBS to remove 2-phenylphenol and resuspended in fresh medium with antibiotics and without 2-phenylphenol. The other half was resuspended in their original medium without washing. Aliquots were taken every hour. […] Statistical significance of results was determined using a Student's two-tailed t-test. The limit of detection (LOD) was calculated using GraphPad Prism software and is defined as the blank plus three times the standard deviation of the blank.\nIn the bacterial sensor cells when exposed to 2-PP, the HbpR promoter is activated by 2-PP and HbpR protein is expressed from the transfected plasmids. […] The Limit of Detection (LOD) was calculated to be 0.863 μM for this sensor strain (FIG. 1i). […]\nIn order to test the response of the reporter over time, the sensor strains were treated with various amounts of 2-PP and reporter activity was measured every hour for five hours. […]"}, "[3]": {"system": "HbpR", "assay": "AmilCP visual reporter of sensing strains on agar plates and in liquid culture", "assay_type": "cell-based, Pseudomonas azelaica", "procedure": "Strains containing AmilCP reporters were incubated overnight to saturation at 30° C. with shaking. Three μl of culture were pipetted onto 6 cm LB-agar plates containing 0.2 mM IPTG, 100 μg/mL carbenicillin, 50 μg/mL kanamycin, and 0 μM, 1 μM, or 10 μM of 2-phenylphenol. Images of the plates were taken at time points 0, 6, 12, 24, and 48 hours with a Nikon SMZ25 stereoscope.\nAfter 12-24 hours on agar plates containing 10 μM 2-phenylphenol, the strains with amplification circuit produced enough AmilCP purple reporter to become just barely visible.\nWhile the response time for the AmilCP reporter was slower than the 2 hour response time observed with the β-galactosidase reporter, use of the AmilCP reporter allowed for reporter visualization without additional equipment. When absorbance at 588 nm was used, addition of the amplification circuit in the AmilCP system allowed for detection of 2-PP at concentrations as low as 1 μM (FIG. 4B). The increase in reporter production through genetic amplification made it feasible for the living sensor to maintain a robust, visual reporter output when encapsulated."}, "[4]": {"system": "aquatic organisms", "conditions": "EPA reregistration decision; cited from earlier work"}, "[5]": {"system": "mutant HbpR protein P6-F-8", "conditions": "50 μM PCB-1 vs 50 μM 2-PP", "source_text": "(§1) To generate biosensor systems that detect additional analytes, HbpR mutants were generated using a HbpR codon optimized library sequence (SEQ ID NO: 4) and a plasmid containing the same (SEQ ID NO: 8) and selection against different analytes."}, "[6]": {"system": "mutant HbpR protein P6-A-8", "conditions": "50 μM PCB-1 vs 50 μM 2-PP", "source_text": "as §1"}, "[7]": {"system": "mutant HbpR protein P6-B-9", "conditions": "50 μM PCB-1 vs 50 μM 2-PP", "source_text": "as §1"}, "[8]": {"system": "mutant HbpR protein P4-A-8", "conditions": "50 μM PCB-3 vs 50 μM 2-HBP", "source_text": "as §1"}, "[9]": {"conditions": "agar plates, 1 μM and 10 μM 2-phenylphenol"}}}
{"smiles": "Oc1ccccc1-c1ccccc1", "note": "[2-PP, 2-phenylphenol]", "values": [{"measurement": "time to purple color response of encapsulated strain", "setting": "[1]; 10 μM 2-PP, 30° C.", "value": "≤ 24", "unit": "h"}, {"measurement": "response of eBEADS at less than 10 μM", "setting": "[1]; after 48 hours, less than 10 μM 2PP", "value": "no response"}, {"measurement": "Limit of Detection (LOD)", "setting": "[2]; lacZ reporter, no amplification, three hours, blank plus three SD", "value": 0.863, "unit": "µM"}, {"measurement": "response time of β-galactosidase reporter", "setting": "[2]; β-galactosidase reporter", "value": 2, "unit": "h"}, {"measurement": "lowest 2-PP concentration detected with AmilCP", "setting": "[3]; absorbance at 588 nm, with amplification circuit, 24 hours", "value": "≥ 1", "unit": "µM"}, {"measurement": "AmilCP colour after 48 hours, with amplification circuit", "setting": "[3]; [9]", "value": "vibrant purple color"}, {"measurement": "AmilCP colour after 48 hours, without amplification circuit", "setting": "[3]; [9]", "value": "faintly visible"}, {"measurement": "time until AmilCP purple reporter just barely visible", "setting": "[3]; agar plates, 10 μM 2-phenylphenol, with amplification circuit", "value": "12 to 24", "unit": "h"}, {"measurement": "LC50 for some aquatic organisms", "setting": "[4]", "value": "≥ 0.32", "unit": "mg/L"}]}
{"smiles": "Clc1ccccc1-c1ccccc1", "note": "[PCB-1, polychlorinated biphenyl-1]", "values": [{"measurement": "lacZ reporter expression, mutant P6-F-8", "setting": "[5]", "value": "selective lacZ reporter expression"}, {"measurement": "lacZ reporter expression, mutant P6-A-8", "setting": "[6]", "value": "selective lacZ reporter expression"}, {"measurement": "lacZ reporter expression, mutant P6-B-9", "setting": "[7]", "value": "selective lacZ reporter expression"}]}
{"smiles": "Clc1ccc(-c2ccccc2)cc1", "note": "[PCB-3, polychlorinated biphenyl-3]", "values": [{"measurement": "lacZ reporter expression, mutant P4-A-8", "setting": "[8]", "value": "selective lacZ reporter expression"}]}
